Our source for the CC50 values is patent US20070015733A1, “Aryl Phosphate Derivatives of d4T having Activity Against Resistant HIV Strains” (Parker Hughes Institute, priority 1998, published 2007).

This series relates to peripheral blood mononuclear cells. The series can be described thus: Microculture tetrazolium assay (MTA) cytotoxicity in PBMNC. To be noted: viability of PBMC. As to the method:
Percent inhibition of viral replication was calculated by comparing the p24 and RT activity values from the test substance-treated infected cells with those from untreated infected cells. In parallel, the cytotoxicity of the compounds was examined using a microculture tetrazolium assay (MTA) of cell proliferation, as described.in the Zarling, Enrice, and Uckun articles Supra).
Cellular Assays of Anti-HIV Activity and Cytotoxicity. […] Percent viral inhibition was calculated by comparing the RT activity values from the test substance-treated infected cells with RT values from untreated infected cells (i.e., virus controls).
Antiviral susceptibility assays. Phenotypic drug susceptibility studies of HIV-1 isolates and strains were performed by measuring the production of the p24 gag protein in peripheral blood mononuclear cells (PBMC) from seronegative healthy volunteers in the presence of increasing concentrations of the anti-HIV agent using the quantitative Coulter HIV-1 p24 antigen ezyme immunoassay (EIA) and HIV-1 p24 Antigen Kinetic Standard (Beckman Coulter), as previously described (Uckun, 1998, Antimicrobial Agents and Chemotherapy 37(4): 835-38). Informed consent was obtained from the blood donors according to DHHS guidelines using consent forms approved by the Institutional Review Board. In brief, PBMC were cultured for 72 h in RPMI 1640 medium (Gibco) supplemented with 20% (vol/vol) heat-inactivated fetal bovine serum, 5% human interleukin-2 (Zeptometrix), 2 mM L-glutamine, 25 mM HEPES, 2 g/L NaHCO3, 100 U/ml penicillin/streptomycin (Gibco), 50 μg/ml gentamicin (Gibco), and 5 μg/ml phytohemagglutinin-P (PHA-P) (Sigma) for 24-72 hours prior to exposure to HIV at a multiplicity of infection of 0.001-0.1 during a 1-h adsorbtion period at 37±1° C. in a humidified 5-7% CO2 atmosphere. Subsequently, cells were cultured in 96-well microtiter plates (100 μl/well; 2×10^6 cells/ml, triplicate wells) in the presence of the anti-HIV agents at 6-7 different concentrations ranging from 0.0001 μM to 100 μM, and 25 μL aliquots of culture supernatants were removed from the wells on day 6 after infection for p24 EIA, as previously described (Uckun, 1998, Antimicrobial Agents and Chemotherapy, 37(4):835-38). Controls included uninfected and untreated cells (background control) and infected but untreated (virus control) cells. The p24 EIA utilizes a murine monoclonal antibody to HIV core protein used to coat microwell strips to which the antigen present in the test culture supernatant samples binds. Percent inhibition of viral replication was calculated by comparing the p24 values from the test substance-treated infected cells with p24 values from untreated infected cells (i.e., virus controls). The IC50 values were determined using the Statview statistics program (SAS Institute, Inc.). In parallel, the effects of various treatments on cell viability were also examined as previously described (Uckun, 1998, Antimicrobial Agents and Chemotherapy, 42:383-388). In brief, noninfected PBMC were treated with each compound for 5 days under identical experimental conditions. A microculture tetrazolium assay (MTA) was performed to quantitate cellular proliferation (Uckun, 1998, Antimicrobial Agents and Chemotherapy, 42:383-388).
In parallel, the cytotoxicity of the compounds was examined using a microculture tetrazolium assay (MTA) of cell proliferation, as described (in the Zarling, Enrice, and Uckun articles Supra).

Where only a bound is given, the exact number is not on record here.

Turning to `COC(=O)C(C)NP(=O)(OC[C@@H]1C=C[C@H](n2cc(C)c(=O)[nH]c2=O)O1)Oc1ccc(Br)cc1` (stereo partly shown) [Compound 1c, d4T-5′-[p-bromo-phenylmethoxyalaninyl phosphate]], the CC50 was over 100 µM.
